These results are taken from US20260224574A1, “ANTIFUNGAL COMPOSITIONS AND METHODS OF USE THEREOF” (ARIZONA BOARD OF REGENTS ON BEHALF OF THE UNIVERSITY OF …, priority 2023, published 2026).

This experiment deals with Cne H99 strain. The experiment in a line: cell-based anti-Cryptococcus neoformans growth inhibition dose-response assay (resazurin to resorufin fluorescence). The conditions noted are these: Cryptococcus neoformans, H99STRAIN, Cne H99, concentration series 0.02-50 μM, 24 hours incubation. The protocol: For primary screening, a cell-based high-throughput screening (HTS) assay was developed for testing the growth inhibition of Cne H99 strain of fungus. […] After standardizing the assay in 96 well plates, it was optimized in a 384-well plate.
The compound library included known bioactives, commercial libraries, and academic molecules. For HTS, the fungal cells were grown in SD broth overnight and diluted in Sabouraud dextrose (SD) broth to an optical density at 600 nm (OD600) of 0.5. […] From this cell suspension, 20 μL of the cells was added to each well of the 384-well assay plate (black, clear bottom) containing test compounds. Plates with test compounds were prepared by adding 20 μL of RPMI-MOPS medium to each well using a liquid dispenser (Thermo Multidrop Combi), followed by transferring 1 μL of the test compounds to all wells of the 22 columns in the assay plate using a robot. Dimethyl sulfoxide (DMSO) as vehicle control or 0.8 μM AmB as positive control was added manually to the remaining two columns using a multichannel pipet. […] Additionally, the absorbance was also read at 600 nm using the plate reader (EnVision, PerkinElmer).
Concentration series (0.02-50 μM) of test compounds and equalizing volume of DMSO were dispensed, using a liquid handler (D300e, Hewlett-Packard), to the 384-well plates. Following the addition of the Cne cells, the assay plates were incubated for 24 hours, followed by a fluorescence reading of resorufin as explained for single-concentration screening. The IC50 was calculated by graphpad prism.
On the technique in general: Alamar Blue is a resazurin reagent that responds to reducing activity.
Compound `COc1cc(CN2CCCCCCOc3ccccc3Oc3ccc(Cl)cc3NC(=O)C2)ccc1OCCN(C)C` [compound 64] yielded a concentration for half-maximal inhibition (IC50) of 7.75 µM.

`CCc1noc2ncnc(NCCC3=CCCCC3)c12` [compound 31] returned an IC50 of 4.09 µM.

With `CCN(CC)CCN1COc2c(cc(Cl)c3cccnc23)C1` [compound 66], it took 8.08 µM to reach half-maximal inhibition (IC50).

On to `Cc1nc(NCc2ccccc2)c2c(C)noc2n1` [compound 86], for which inhibition was half-maximal at 9.99 µM (IC50). This IC50 and that of the compound before are within 1.5-fold of each other.

`Cc1ccc(NC(=O)Nc2ncc(-c3ccccc3)n2C)cc1Cl` [compound 9] showed an IC50 of 1.68 µM.

Broadly, the IC50 is the midpoint of a concentration-inhibition curve. A high value points to weaker potency in that assay.
